Test results as given in article PMC9926234, “Iterative computational design and crystallographic screening identifies potent inhibitors targeting the Nsp3 macrodomain of SARS-CoV-2” (Proceedings of the National Academy of Sciences of the …, 2023).
pIC50, pKi: −log10 of the molar value. “And” between values parts separate entries of the source, which are not always exact repeats. Equal values may be shown once. Read-outs that look alike come from different tables or passages of the source.

Key:
SARS-CoV-2 NSP3 Mac1 [1] = molecular target: T1, SARS-CoV-2 NSP3 Mac1 (Severe acute respiratory syndrome coronavirus 2, UniProt P0DTD1); parameters: contains a conserved macrodomain enzyme (Mac1); Differential scanning fluorimetry of Mac1, maximum thermal upshift; conditions: maximum shift over tested concentrations; binder
SARS-CoV-2 NSP3 Mac1 [2] = molecular target: T1, SARS-CoV-2 NSP3 Mac1; assay: biochemical; type: binding; conditions: for pKi: read-out: Ki***
SARS-CoV-2 NSP3 Mac1 [3] = molecular target: T1, SARS-CoV-2 NSP3 Mac1; type: binding; conditions: for 1-BDC (PanDDA): 1 minus background density correction; for 1-BDC (PanDDA) / Refined occupancy: crystal soaking of Mac1; for Refined occupancy: ligand occupancy after refinement (phenix.refine)
SARS-CoV-2 NSP3 Mac1 [4] = assay: Overall hit call (binding in crystallographic soaking or the HTRF-based binding assay)
Text: Supplement pnas.2212931120.sd01.xlsx, sheet "Compound Summary" | column: HIT*

[5] = PanDDA event map 1-BDC, crystal soak, Compound_concentration 100 mM, PanDDA run dmso_34 or nohits_35 per dataset
[6] = crystal soak, Compound_concentration 100 mM, Echo dispense 40 nl, PanDDA run dmso_34 or nohits_35 per dataset
[7] = HTRF ADPr-conjugated peptide displacement, read-out: IC50
[8] = PanDDA 1-BDC of the event, compound stock 100 mM, Echo dispense volume 80 nl
[9] = crystal soak, compound stock 100 mM, Echo dispense volume 80 nl
[10] = PanDDA event map background density correction, crystal soak, compound concentration 100 mM
[11] = ligand modeled in the crystal structure, crystal soak, compound concentration 100 mM
[12] = PanDDA event map, crystal soak, Compound_concentration 100 mM, Echo_dispense_volume 40 nl
[13] = crystal soak, Compound_concentration 100 mM, Echo_dispense_volume 40 nl, PanDDA run (background map) dmso_34, nohits_35 or nohits_62
[14] = ligand modeled, crystal soak, Compound_concentration 100 mM, Echo_dispense_volume 40 nl

SMILES	DSF max dTma (SARS-CoV-2 NSP3 Mac1 [1]) [°C]	1-BDC (SARS-CoV-2 NSP3 Mac1 [3]; [5])	1-BDC (PanDDA) (SARS-CoV-2 NSP3 Mac1 [3]; PanDDA event map)	PanDDA hit? (SARS-CoV-2 NSP3 Mac1 [3]; [6])	Refined occupancy (SARS-CoV-2 NSP3 Mac1 [3])	HIT* (SARS-CoV-2 NSP3 Mac1 [4])	pIC50 (SARS-CoV-2 NSP3 Mac1 [2]; [7])	pKi (SARS-CoV-2 NSP3 Mac1 [2])	also measured
NC(=O)Nc1ccc(C(=O)NC2c3cccc(O)c3CC2C(=O)O)cc1 (stereo not drawn) [Z8539_0041, 8539_0041]	6								
CC1(C)CCC(C(=O)O)CN1C(=O)c1ncnc2[nH]ccc12 (stereo not drawn) [F2804, FRESH00012962804]	0.62								
O[C@H]1CCCC[C@H]1Nc1ncnc2[nH]ccc12 (relative stereo) [SRH-0015]		0.13	0.13	TRUE	26	Y			pIC50 (SARS-CoV-2 NSP3 Mac1 [2]; IC50, HTRF ADPr-peptide displacement from SARS-CoV-2 Mac1): 3.88; IC50 (SARS-CoV-2 NSP3 Mac1 [2]; IC50 [µM], HTRF ADPr-conjugated peptide displacement): 132 µM; Ki (SARS-CoV-2 NSP3 Mac1 [2]; Ki*** [µM]): 115 µM; Modeled? (SARS-CoV-2 NSP3 Mac1 [3]; ligand modeled in this dataset, crystal soak, Compound_concentration 100 mM): TRUE
O=C(O)C(O)C1CCCN(c2ncnc3[nH]c4cc(F)ccc4c23)C1 (stereo not drawn) [LL114_0036]		0.2	0.24	TRUE	48	Y	4.47	4.53	1-BDC (SARS-CoV-2 NSP3 Mac1 [3]; [8]): 0.24; PanDDA hit? (SARS-CoV-2 NSP3 Mac1 [3]; [9]): TRUE; Modeled? (SARS-CoV-2 NSP3 Mac1 [3]; ligand modeled in structure, compound stock 100 mM, Echo dispense volume 80 nl): TRUE
O=C(O)[C@H]1[C@@H]2CN(c3ncnc4[nH]c5cc(F)ccc5c34)CC[C@@H]21 [LL114_0037]						Y	4.42	4.49	
c1csc(CC2CCN(c3ncnc4[nH]ccc34)C2)n1 (stereo not drawn) [Z6891, ZINC000897286891]	0.15								
O=C(NCc1c(C(=O)O)[nH]c2ccccc12)c1ccc2[nH]c(O)nc2c1 [Z8539_2006]			0.05		10	Y	4.80	4.86	1-BDC (SARS-CoV-2 NSP3 Mac1 [3]; [10]): 0.05; Modeled? (SARS-CoV-2 NSP3 Mac1 [3]; [11]): TRUE
O=C1NCCCC1Nc1ncnc(-c2ccccc2)n1 (stereo not drawn) [Z9020, ZINC000884519020]	1.01								
O=C(O)C1(F)CN(c2ncnc3[nH]c4cc(F)ccc4c23)CC1C1CC1 (stereo not drawn) [LL123_0032]		0.1	0.12	TRUE	24	Y	4.38	4.44	1-BDC (SARS-CoV-2 NSP3 Mac1 [3]; [8]): 0.14; 1-BDC (SARS-CoV-2 NSP3 Mac1 [3]; [12]): 0.12; PanDDA hit? (SARS-CoV-2 NSP3 Mac1 [3]; [13]): TRUE; PanDDA hit? (SARS-CoV-2 NSP3 Mac1 [3]; [9]): TRUE; Modeled? (SARS-CoV-2 NSP3 Mac1 [3]; [14]): TRUE
Nc1ncnc(N2CCCC(CCC(=O)O)C2)c1Cl (stereo not drawn) [R6134, REAL250003296134]	0.34								
Nc1nc(N2CC3(CCC3)C(F)(C(=O)O)C2)c2c(n1)[nH]c1cc(F)ccc12 (stereo not drawn) [LL123_0016]			0.17		34	Y	4.61	4.67	1-BDC (SARS-CoV-2 NSP3 Mac1 [3]; [10]): 0.17; 1-BDC (SARS-CoV-2 NSP3 Mac1 [3]; [12]): 0.15; PanDDA hit? (SARS-CoV-2 NSP3 Mac1 [3]; [13]): TRUE; Modeled? (SARS-CoV-2 NSP3 Mac1 [3]; [11]): TRUE
Cc1nnc2n1CC(C(=O)O)N(C(=O)c1ccc(NC(=O)NC3CC3)cc1)C2 (stereo not drawn) [Z8539_0037, 8539_0037]	2.36								
O=C(O)C1CN(c2ncnc3[nH]c4cc(F)ccc4c23)CC12CCC2 (stereo not drawn) [LL123_0020]		0.13	0.17	TRUE	34	Y	4.87	4.93	pIC50 (SARS-CoV-2 NSP3 Mac1 [2]; HTRF ADPr-peptide displacement from SARS-CoV-2 Mac1, read-out: IC50): 4.85; 1-BDC (SARS-CoV-2 NSP3 Mac1 [3]; [8]): 0.12 and 0.17; 1-BDC (SARS-CoV-2 NSP3 Mac1 [3]; [12]): 0.17; PanDDA hit? (SARS-CoV-2 NSP3 Mac1 [3]; [13]): TRUE; PanDDA hit? (SARS-CoV-2 NSP3 Mac1 [3]; [9]): TRUE; Modeled? (SARS-CoV-2 NSP3 Mac1 [3]; [14]): TRUE
